The values that follow come from patent US20230286999A1, “ORGANIC COMPOUND, LIGHT-RECEIVING DEVICE, LIGHT-EMITTING AND LIGHT-RECEIVING APPARATUS, AND ELECTRONIC DEVICE” (Semiconductor Energy Laboratory Co., Ltd., priority 2022, published 2023).

The nature of data set [1]: Solubility evaluation using a liquid chromatography mass spectrometer. It counts as physicochemical. The following applies: for Ratio of chromatogram peak areas (Peak area of material/Peak area of solvent × 100), considered as the solubility: 0.5 mg material in 0.25 mL chloroform + 2.5 mL acetonitrile, filtrate after 18 hours, DPAPhA: 1 mg in 1 mL toluene, 5-fold dilution with acetonitrile, 100% = completely dissolved; for solubility compared with FT2TDMN (in words): chloroform/acetonitrile sample. As for the experimental part: In Example 3, the solubilities of materials that can be used for a photoelectric conversion device of one embodiment of the present invention are described. The solubilities of the materials were measured using a liquid chromatography mass spectrometer.
In Example 3, the solubilities of the organic compound (abbreviation: EtHex-FT2TDMN) represented by Structural Formula (100) in Embodiment 1 and the organic compound (abbreviation: EtHex-BisDCVTTt) represented by Structural Formula (200) in Embodiment 1 were evaluated. As a comparative example, FT2TDMN, which is a material having no branched alkyl, was evaluated. Furthermore, DPAPhA, which is a material with high solubility, was also evaluated as a reference sample.
The solubilities were measured using a liquid chromatography mass spectrometer. Specifically, chromatogram peak areas of the solvent and the material in the sample were obtained, the proportion of the peak area of the material to the peak area of the solvent was calculated, and the calculated value was considered as the solubility.
Note that the solubility of the case where the sample is completely dissolved is 100%. In Example 3, DPAPhA is a reference sample that is completely dissolved. In the case where a chromatogram peak is not detected and an MS spectrum is detected from a sample, the mass of the sample is regarded as being lower than the detection limit and the solubility is 0%.
The liquid chromatography mass spectrometer is constructed of ACQUITY H-Class (produced by Waters Corporation) and Xevo™ G2 Q-TOF MS (produced by Waters Corporation), and ACQUITY UPLC (registered trademark) BEH C8 Column ([…], 2.1×100 mm) (produced by Waters Corporation, hereinafter referred to as Column) was used as a column.
Samples of EtHex-FT2TDMN, EtHex-BisDCVTTt, and FT2TDMN used for solubility evaluation were formed. Specifically, in a reagent bottle made of glass were put 0.5 mg of the material and 0.25 mL of chloroform, and ultrasonic treatment was performed for 1 minute. To the obtained mixture, 2.5 mL of acetonitrile was added, and the resulting mixture was left still. After 18 hours, the resulting mixture was filtrated. With the use of the obtained filtrate as a sample, a solubility test for evaluating the solubility was performed using the liquid chromatography mass spectrometer.
Next, the DPAPhA sample used for solubility evaluation was formed. In a reagent bottle made of glass were put 1 mg of the material and 1 mL of toluene, and ultrasonic treatment was performed for 1 minute. Acetonitrile was added to the obtained solution to make a 5-fold dilution. The dilute solution was used as the sample and took the solubility test with the liquid chromatography mass spectrometer.
A measurement method for the solubility test for evaluating the solubility using the liquid chromatography mass spectrometer is described. As a mobile phase A and a mobile phase B, acetonitrile and a formic acid aqueous solution (0.1%) were used, respectively; the velocity of flow of a solvent was 0.5 mL/min; and the sample injection amount was 5 μL.
For 1 minute from the beginning of the measurement, the ratio of a mobile phase A to a mobile phase B was set to be 75:25. From 1 minute to 9 minutes, measurement was performed with a linear gradient to the ratio of 95:5. After a lapse of 10 minutes, measurement was performed for 5 minutes with the ratio of 95:5 held.
For 1 minute from the beginning of the measurement, the ratio of a mobile phase A to a mobile phase B was set to be 85:15. From 1 minute to 9 minutes, measurement was performed with a linear gradient to the ratio of 95:5. After a lapse of 10 minutes, measurement was performed for 5 minutes with the ratio of 95:5 held.
For 1 minute from the beginning of the measurement, the ratio of a mobile phase A to a mobile phase B was set to be 40:60. From 1 minute to 9 minutes, measurement was performed with a linear gradient to the ratio of 95:5. […]

Data set [2] is described as follows: Thermogravimetry-differential thermal analysis (TG-DTA). It is filed as physicochemical. The settings on record: 10° C./min. The protocol: The thermogravimetry-differential thermal analysis (TG-DTA) of EtHex-FT2TDMN was performed. The measurement was conducted using a high vacuum differential type differential thermal balance (TG-DTA 2410SA, manufactured by Bruker AXS K.K.). The measurement was performed under two conditions. The first measurement was performed at atmospheric pressure at a temperature rising rate of 10° C./min under a nitrogen stream (flow rate: 200 mL/min). The second measurement was performed at 10 Pa at a temperature rising rate of 10° C./min under a nitrogen stream (flow rate: 2 mL/min).
The thermogravimetry-differential thermal analysis (TG-DTA) of EtHex-BisDCVTTt was performed. The measurement was conducted using a high vacuum differential type differential thermal balance (TG-DTA 2410SA, manufactured by Bruker AXS K.K.). The measurement was performed under two conditions. The first measurement was performed under atmospheric pressure at a temperature rising rate of 10° C./min under a nitrogen stream (flow rate: 200 mL/min). The second measurement was performed at 10 Pa at a temperature rising rate of 10° C./min under a nitrogen stream (flow rate: 2 mL/min).

Where [3] appears, read: 10 Pa, nitrogen stream 2 mL/min.
Setting [4] is: atmospheric pressure, nitrogen stream 200 mL/min.

Take `c1ccc(-c2c3ccccc3c(N(c3ccccc3)c3ccc(N(c4ccccc4)c4ccccc4)cc3)c3ccccc23)cc1` [DPAPhA, reference compound]: the “Ratio of chromatogram peak areas (Peak area of material/Peak area of solvent × 100), considered as the solubility” value in data set [1] turned out to be 100%.

On to `CCCCC(CC)Cc1cc(-c2cc3sc(-c4cc5sc(-c6cc(CC(CC)CCCC)c(C=C(C#N)C#N)s6)cc5s4)cc3s2)sc1C=C(C#N)C#N` (centres unmarked) [EtHex-BisDCVTTt], for which, in data set [1], the “Ratio of chromatogram peak areas (Peak area of material/Peak area of solvent × 100), considered as the solubility” value is 3.5% and the “solubility compared with FT2TDMN (in words)” value is recorded as “favorable solubilities”. In data set [2] (setting [3]), the “temperature (decomposition temperature) at which the weight obtained by thermogravimetry was reduced by 5%” value was determined as 295 °C. In data set [2] (setting [4]), the “temperature (decomposition temperature) at which the weight obtained by thermogravimetry was reduced by 5%” value came out at 362 °C.

For the compound `CCCCC(CC)Cc1cc(-c2cc3sc(-c4cc(CC(CC)CCCC)c(C=C(C#N)C#N)s4)cc3s2)sc1C=C(C#N)C#N` (centres unmarked) [EtHex-FT2TDMN, 2,2′-[5,5′-(thieno[3,2-b]thiophene-2,5-diyl)bis(3-(2-ethylhexyl)thiophene-5,2-diyl)]bis(methan-1-yl-1-ylidene)dimalononitrile], in data set [1], the “Ratio of chromatogram peak areas (Peak area of material/Peak area of solvent × 100), considered as the solubility” value is given as 18%. In addition, in data set [1], the “solubility compared with FT2TDMN (in words)” value is “favorable solubilities”. Besides, the “temperature (decomposition temperature) at which the weight obtained by thermogravimetry was reduced by 5%” value amounted to 244 °C in data set [2] (setting [3]) and 325 °C in data set [2] (setting [4]).

As to `N#CC(C#N)=Cc1ccc(-c2cc3sc(-c4ccc(C=C(C#N)C#N)s4)cc3s2)s1` [FT2TDMN, reference compound], the “Ratio of chromatogram peak areas (Peak area of material/Peak area of solvent × 100), considered as the solubility” value in data set [1] was determined as 0%. Further, the “chromatogram peak detection in solubility measurement (in words)” value in data set [1] (only an MS spectrum was detected, regarded as below detection limit, solubility 0%) is “no chromatogram peak was detected”.
